pIC50: −log10 of the molar value. Active and inactive are the calls of the source. The calls are words filed in the database; no cut-off is given here.
Tests used:
ES-2 [1] = test: Antiproliferative activity against human ES2 cells assessed as cell death after 72 hrs by Alamar blue viability assay; type: functional, cell-based; conditions: ES-2, 72 h
[2] = Hemolytic activity in human RBC measured by hemolysis assay; type: toxicity, cell-based; conditions: erythrocyte
Staphylococcus aureus = test: Antibacterial activity against Staphylococcus aureus; type: functional
Escherichia coli = test: Antibacterial activity against Escherichia coli; type: functional
ES-2 [3] = test: Antiproliferative activity against human ES2 cells at 10 uM assessed as time to induce 50% cell death measured by Annexin V/propidium iodide staining method; type: functional
MIA PaCa-2 = test: Antiproliferative activity against human MIA PaCa-2 cells at 10 uM assessed as time to induce 50% cell death measured by Annexin V/propidium iodide staining method; type: functional
HCT-116 [4] = test: Antiproliferative activity against human HCT-116 cells at 10 uM assessed as time to induce 50% cell death measured by Annexin V/propidium iodide staining method; type: functional
ES-2 [5] = test: Antiproliferative activity against human ES2 cells at 10 uM pretreated with 25 uM pan-caspase inhibitor Q-VD-OPh and assessed as induction of cell death measured after 13 hrs; type: functional, cell-based
HCT-116 [6] = test: Antiproliferative activity against human HCT-116 cells at 10 uM pretreated with 25 uM pan-caspase inhibitor Q-VD-OPh and assessed as induction of cell death measured after 13 hrs; type: functional, cell-based
ES-2 [7] = test: Induction of PARP-1 cleavage in human ES2 cells measured after 1 to 7 hrs; type: functional, cell-based; conditions: time 1-7 hrs
HCT-116 [8] = test: Induction of PARP-1 cleavage in human HCT-116 cells measured after 1 to 7 hrs; type: functional, cell-based; conditions: time 1-7 hrs
ES-2 [9] = test: Induction of apoptosis in human ES2 cells assessed as change in cell membrane blebbing; type: functional, cell-based
ES-2 [10] = test: Induction of apoptosis in human ES2 cells assessed as change in chromatin condensation; type: functional, cell-based
ES-2 [11] = test: Induction of ROS production in human ES2 cells at 5 to 25 uM measured by carboxy-H2DCFDA fluorescence assay; type: functional, cell-based; conditions: dose 5-25 µM
HCT-116 [12] = test: Induction of ROS production in human HCT-116 cells at 5 to 25 uM measured by carboxy-H2DCFDA fluorescence assay; type: functional, cell-based; conditions: dose 5-25 µM
ES-2 [13] = test: Induction of ROS production in human ES2 cells at 10 to 25 uM measured by MitoSox red fluorescence assay; type: functional, cell-based; conditions: dose 10-25 µM
ES-2 [14] = test: Induction of ROS-induced lipid peroxidation in human ES2 cells at 10 uM measured after 1 hr; type: functional, cell-based
HCT-116 [15] = test: Induction of ROS-induced lipid peroxidation in human HCT-116 cells at 10 uM measured after 1 hr; type: functional, cell-based
4T1 [16] = test: Induction of ROS-induced lipid peroxidation in mouse 4T1 cells at 10 uM measured after 1 hr; type: functional, cell-based
ES-2 [17] = test: Induction of ROS-induced lipid peroxidation in human ES2 cells at 10 uM pretreated with DFO and measured after 1 hr; type: functional, cell-based
HCT-116 [18] = test: Induction of ROS-induced lipid peroxidation in human HCT-116 cells at 10 uM pretreated with DFO and measured after 1 hr; type: functional, cell-based
4T1 [19] = test: Induction of ROS-induced lipid peroxidation in mouse 4T1 cells at 10 uM pretreated with DFO and measured after 1 hr; type: functional, cell-based
ES-2 [20] = test: Induction of cell death in human ES2 cells at 5 to 25 uM in presence of 250 uM trolox and measured after 14 hrs; type: functional, cell-based; conditions: dose 5-25 µM
ES-2 [21] = test: Induction of cell death in human ES2 cells at 5 to 25 uM in presence of 2 uM ferrostatin-1 and measured after 14 hrs; type: functional, cell-based; conditions: dose 5-25 µM
ES-2 [22] = test: Induction of cell death in human ES2 cells at 5 to 25 uM in presence of 100 uM DFO and measured after 14 hrs; type: functional, cell-based; conditions: dose 5-25 µM
HCT-116 [23] = test: Induction of cell death in human HCT-116 cells at 5 to 25 uM in presence of 250 uM trolox and measured after 10 hrs; type: functional, cell-based; conditions: dose 5-25 µM
HCT-116 [24] = test: Induction of cell death in human HCT-116 cells at 5 to 25 uM in presence of 2 uM ferrostatin-1 and measured after 10 hrs; type: functional, cell-based; conditions: dose 5-25 µM
HCT-116 [25] = test: Induction of cell death in human HCT-116 cells at 5 to 25 uM in presence of 100 uM DFO and measured after 10 hrs; type: functional, cell-based; conditions: dose 5-25 µM
A549 [26] = test: Induction of cell death in human A549 cells at 5 to 25 uM in presence of 250 uM trolox and measured after 12 hrs; type: functional, cell-based; conditions: dose 5-25 µM
A549 [27] = test: Induction of cell death in human A549 cells at 5 to 25 uM in presence of 2 uM ferrostatin-1 and measured after 12 hrs; type: functional, cell-based; conditions: dose 5-25 µM
A549 [28] = test: Induction of cell death in human A549 cells at 5 to 25 uM in presence of 100 uM DFO and measured after 12 hrs; type: functional, cell-based; conditions: dose 5-25 µM
4T1 [29] = test: Induction of cell death in mouse 4T1 cells at 5 to 25 uM in presence of 250 uM trolox and measured after 18 hrs; type: functional, cell-based; conditions: dose 5-25 µM
4T1 [30] = test: Induction of cell death in mouse 4T1 cells at 5 to 25 uM in presence of 2 uM ferrostatin-1 and measured after 18 hrs; type: functional, cell-based; conditions: dose 5-25 µM
4T1 [31] = test: Induction of cell death in mouse 4T1 cells at 5 to 25 uM in presence of 100 uM DFO and measured after 18 hrs; type: functional, cell-based; conditions: dose 5-25 µM
HCT-116 [32] = test: Induction of cell death in human HCT-116 cells at 5 to 25 uM in presence of 5 mM NAC and measured after 10 hrs; type: functional, cell-based; conditions: dose 5-25 µM
A549 [33] = test: Induction of cell death in human A549 cells at 5 to 25 uM in presence of 5 mM NAC and measured after 12 hrs; type: functional, cell-based; conditions: dose 5-25 µM
[34] = biological target: T1, Phospholipid hydroperoxide glutathione peroxidase GPX4 (Homo sapiens) (UniProt P36969); test: Inhibition of GPX4 in human ES2 cells at 10 uM measured after 1 hr by phosphotidylcholine hydroperoxide (PCOOH) LC-MS based assay relative to control; type: cell-based
T1 sequence (whole entry): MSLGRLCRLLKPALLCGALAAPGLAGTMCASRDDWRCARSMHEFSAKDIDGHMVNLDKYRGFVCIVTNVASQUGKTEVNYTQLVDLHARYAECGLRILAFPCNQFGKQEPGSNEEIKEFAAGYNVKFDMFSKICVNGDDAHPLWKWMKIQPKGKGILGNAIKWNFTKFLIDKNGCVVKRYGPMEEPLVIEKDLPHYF

[35] = biological target: T2, Thioredoxin, mitochondrial (Homo sapiens) (UniProt Q99757); test: Inhibition of thioredoxin in human HCT-116 cells at 20 uM relative to control; type: cell-based
T2 sequence (whole entry): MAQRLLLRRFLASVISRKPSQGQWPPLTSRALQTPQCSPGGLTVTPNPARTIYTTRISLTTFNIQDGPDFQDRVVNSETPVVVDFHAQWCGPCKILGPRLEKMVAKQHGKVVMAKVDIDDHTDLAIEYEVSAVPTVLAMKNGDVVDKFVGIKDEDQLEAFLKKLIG

[36] = biological target: T2, Thioredoxin, mitochondrial (Homo sapiens); test: Inhibition of human thioredoxin at 0.5 to 10 uM measured after 30 mins relative to control; conditions: dose 0.5-10 µM
MCF-10A = test: Antiproliferative activity against human MCF-10A cells after 72 hrs by Alamar blue viability assay; type: functional, cell-based
HFF-1 = test: Antiproliferative activity against human HFF-1 cells after 72 hrs by Alamar blue viability assay; type: functional, cell-based; conditions: HFF-1, 72 h
4T1 [37] = test: Antitumor activity against mouse 4T1 cells xenografted immunocompetent Balb/c mouse assessed as tumor growth inhibition at 50 mg/kg, ip administered twice a week as 5 doses; type: functional; conditions: 4T1, ip, read-out: TGI
4T1 [38] = test: Antitumor activity against mouse 4T1 cells xenografted immunodeficient SCID mouse assessed as tumor growth at 50 mg/kg, ip administered twice a week as 5 doses; type: functional, organism-based
[39] = AUC in C57BL/6 mouse at 40 mg/kg, ip; type: ADME, organism-based; set-up: dose 40 mg/kg; conditions: in vivo
[40] = Half-life in C57BL/6 mouse at 40 mg/kg, ip; type: ADME, organism-based; conditions: in vivo
HCT-116 [41] = test: Antiproliferative activity against human HCT-116 cells assessed as cell death after 72 hrs by Alamar blue viability assay; type: functional, cell-based; conditions: HCT-116, 72 h

## C[C@@H]1CC[C@@]23C[C@H](O)C(=O)[C@@]2(O)[C@]1(C)[C@H](OC(=O)CCl)C[C@@H](C1=CCn2c(=O)n(-c4ccccc4)c(=O)n2C1)[C@@H]3C
ES-2 [1]
  pIC50: 5.80
[2]
  Activity: Non-Toxic
Staphylococcus aureus
  MIC: > 64 µg/mL
Escherichia coli
  MIC: > 64 µg/mL
ES-2 [3]
  Time: 1 h
MIA PaCa-2
  Time: 1.5 h
HCT-116 [4]
  Time: 7 h
ES-2 [5]
  Activity: Active
HCT-116 [6]
  Activity: Active
ES-2 [7]
  Activity: inactive
HCT-116 [8]
  Activity: inactive
ES-2 [9]
  Activity: inactive
ES-2 [10]
  Activity: inactive
ES-2 [11]
  Activity: Active
HCT-116 [12]
  Activity: Active
ES-2 [13]
  Activity: Active
ES-2 [14]
  Activity: Active
HCT-116 [15]
  Activity: Active
4T1 [16]
  Activity: Active
ES-2 [17]
  Activity: inactive
HCT-116 [18]
  Activity: inactive
4T1 [19]
  Activity: inactive
ES-2 [20]
  Activity: inactive
ES-2 [21]
  Activity: inactive
ES-2 [22]
  Activity: inactive
HCT-116 [23]
  Activity: inactive
HCT-116 [24]
  Activity: inactive
HCT-116 [25]
  Activity: inactive
A549 [26]
  Activity: inactive
A549 [27]
  Activity: inactive
A549 [28]
  Activity: inactive
4T1 [29]
  Activity: inactive
4T1 [30]
  Activity: inactive
4T1 [31]
  Activity: inactive
HCT-116 [32]
  Activity: inactive
A549 [33]
  Activity: inactive
[34]
  inhibition: inactive
[35]
  inhibition: Active
[36]
  inhibition: Active
MCF-10A
  pIC50: 5.51
HFF-1
  pIC50: 5.39
4T1 [37]
  inhibition in vivo at 50 mg/kg: 40%
4T1 [38]
  Activity: inactive
[39]
  AUC: 7040 ng·h/mL
[40]
  half-life: 9.96 min
HCT-116 [41]
  pIC50: 5.46

## C[C@@H]1CC[C@@]23C[C@H](O)C(=O)[C@@]2(O)[C@]1(C)[C@H](OC(=O)CCl)C[C@@H](C1=CCC2C(=O)N(c4ccccc4)C(=O)C2C1)[C@@H]3C (stereo partly drawn)
ES-2 [1]
  pIC50: 5.60
HCT-116 [41]
  pIC50: 5.19

## CO[C@H]1C[C@@]23CC[C@@H](C)[C@@](C)([C@H](OC(=O)CCl)C[C@@H](C4=CCn5c(=O)n(-c6ccccc6)c(=O)n5C4)[C@@H]2C)[C@]3(O)C1=O
ES-2 [1]
  pIC50: 5.72
HCT-116 [41]
  pIC50: 5.52

## CC(=O)OCC(=O)O[C@@H]1C[C@@H](C2=CCn3c(=O)n(-c4ccccc4)c(=O)n3C2)[C@H](C)[C@@]23CC[C@@H](C)[C@]1(C)[C@]2(O)C(=O)[C@@H](O)C3
ES-2 [1]
  pIC50: < 4.00
HCT-116 [41]
  pIC50: < 4.00

## CO[C@H]1C[C@@]23CC[C@@H](C)[C@@](C)([C@H](OC(C)=O)C[C@@H](C4=CCn5c(=O)n(-c6ccccc6)c(=O)n5C4)[C@@H]2C)[C@]3(O)C1=O
ES-2 [1]
  pIC50: < 4.00
HCT-116 [41]
  pIC50: < 4.00

## CC(=O)O[C@H]1C[C@@]23CC[C@@H](C)[C@@](C)([C@H](OC(=O)CCl)C[C@@H](C4=CCn5c(=O)n(-c6ccccc6)c(=O)n5C4)[C@@H]2C)[C@]3(O)C1=O
ES-2 [1]
  pIC50: 5.85
HCT-116 [41]
  pIC50: 5.41

## C[C@@H]1CC[C@@]23C[C@H](O)C(=O)[C@@]2(O)[C@]1(C)[C@H](OC(=O)CI)C[C@@H](C1=CCn2c(=O)n(-c4ccccc4)c(=O)n2C1)[C@@H]3C
ES-2 [1]
  pIC50: 6.62
HCT-116 [41]
  pIC50: 6.18

From ChEMBL document CHEMBL5050851, “Compounds that induce ferroptic cell death” (2020)
